According to US8815946B2, “Inhibition of proliferation and fibrotic response of activated corneal stromal cells” (University of Pittsburgh—of the Commonwealth System of …, priority 2008, dated 2014):

Tests used:
Type in all cases: cell-based
[1] = test system: normal human corneal fibroblasts; assay: Cell proliferation analysis, human corneal stromal cells
Method: FIGS. 1A-1C. Effect of ethyl pyruvate on the growth of human corneal stromal cells. Corneal stromal cells in P2 growing in DMEM/F12 with 10% FBS were subcultured into desired number of 35 mm tissue culture dishes. After 24 hrs of incubation, the media were replaced with DMEM/F12 medium containing 1% FBS with or without EP (FIG. 1A) or with the same medium containing TGF-β1 or b-FGF/HS with or without EP (FIG. 1B and FIG. 1C, respectively). The cells in several marked regions were counted every 24 hours as described in Methods. The data points are average (±SE) from two separate experiments.
(§1) To study the effect of EP on cell proliferation, normal human corneal fibroblasts growing in DMEM/F12 with 10% FBS were subcultured into the desired number of 35 mm tissue culture dishes at a density of 5×10^4 cells/per dish. […] Several regions were marked on the bottom of the dishes and cells in marked regions were counted at 24 hr intervals for five days. Phase contrast digital micrographs of the cells in the marked fields were captured and the cells in the images were counted using MetaMorph® imaging software. The rate of proliferation was evaluated by determining the number of cells at specific time points after treatment/number of cells at the start of the treatment. […]

[2] = test system: rabbit corneal stromal cells; assay: Cell proliferation analysis, rabbit corneal stromal cells; settings: 1% FBS, with TGF-β1 or b-FGF/HS
Method: FIG. 2. Effect of ethyl pyruvate on the growth of rabbit corneal stromal cells. Corneal stromal cells in P2 growing in DMEM/F12 with 10% FBS were subcultured into desired number of 35 mm tissue culture dishes. After 24 hrs of incubation, the media were replaced with DMEM/F12 medium containing 1% FBS without EP (labeled “Control), with EP (labeled “Control+EP”); with the same medium containing TGF-β1 without EP (labeled “TGF-β1”) or with EP (labeled “TGF-β1+EP”); or with the same medium containing b-FGF/HS without EP (labeled “FGF/HS”) or with EP (labeled “FGF/HS+EP”). The cells in several marked regions were counted every 24 hours as described in Methods. […]
as §1

α-SMA = assay: Western blot analyses of α-SMA, human corneal stromal cells
Method: FIG. 5. Western blot analyses of α-SMA. Human corneal stromal cells in P2 growing in DMEM/F12 with 10% FBS were subcultured into 60 mm tissue culture dishes. After 24 hrs of incubation, the media were replaced with DMEM/F12 medium containing 1% FBS and TGF-β1 with or without (control) different concentrations of EP as indicated and incubated for two and four days (media were changed every 24 hours). The cells were extracted in RIPA buffer and the extracts containing 5 μg of total proteins were loaded per lane for Western blot analysis.
Keratocytes or fibroblasts grown under different culture conditions were extracted in RIPA buffer (9.1 mM dibasic sodium phosphate, 1.7 mM monobasic sodium phosphate, 150 mM NaCl, pH, 7.4, 1% Nonidet P-40, 0.5% sodium deoxycholate, 0.1% SDS, 0.03 TIU/mL aprotinin, 1 mM sodium orthovanadate, and 100 μg/mL phenylmethylsulfonyl fluoride (PMSF)). Aliquots of cell extracts containing 50 or 100 μg protein were subjected to SDS-PAGE. […] Immunoreactive bands were detected using chemiluminescence Western chemiluminescence reagents. […]

[3] = test system: human corneal stromal cells; assay: Toxicity to cultured human corneal stromal cells; settings: possibly due to low pH of the culture medium
Method: Higher than 20 mM concentrations were toxic to the cells, possibly due to the low pH of the culture medium resulting from high EP concentrations.

CCOC(=O)C(C)=O [ethyl pyruvate]
cell number ([1]; 1% FBS with or without TGF-β1 or b-FGF/HS, 10 mM and 15 mM EP, counted every 24 hours): no significant increases in cell number
proliferation of human corneal fibroblasts and myofibroblasts ([1]; 10-20 mM in the medium): inhibited proliferation
proliferation of rabbit stromal cells [2]: inhibited proliferation
EP concentration with highest downregulation of α-SMA (α-SMA; TGF-β1): 20 mM
TGF-β1 induced expression of α-SMA (Western blot) (α-SMA; two and four days, concentration dependent): down-regulated
concentrations toxic to the cells [3]: Higher than 20 mM
